Measured values: patent US20240254087A1, “SELECTIVE, PARTIAL, AND ARRESTIN-BIASED 5-HT2A AGONISTS WITH UTILITY IN VARIOUS DISORDERS” (Saint Joseph's University, priority 2021, published 2024)
“Also recorded” adds a separate entry of the source. Counter-ions that a name gives are not always drawn. Like-named read-outs stand apart in the source and are kept apart here.

What was measured:
[1] = test system: 5-HT2A; experiment: Ca2+ flux assay, 5-HT2A; format: cell-based, human; details: Gq/11 Ca2+ mobilization; higher number = skewed towards 5-HT2A
Procedure: (§1) Cell lines were maintained in DMEM containing 10% FBS, 10 μg/mL Blasticidin (Invivogen), and 100 μg/mL Hygromycin B (GoldBio). At least 20-24 hours before the assay, receptor expression was induced with tetracycline ([…]) and cells were seeded into 384-well poly-L-lysine-coated black plates at a density of 7,500 cells/well in DMEM containing 1% dialyzed FBS. On the day of the assay, the cells were incubated for 1 h at 37° C. with Fluo-4 Direct dye (Invitrogen, 20 μl/well) reconstituted in drug buffer (20 mM HEPES-buffered HBSS, pH 7.4) containing 2.5 mM probenecid. Drug dilutions were prepared at 5X final concentration in McCorvy buffer (20 mM HEPES-buffered HBSS, 0).1% BSA, 0.01% ascorbic acid pH 7.4). After dye load, cells were allowed to equilibrate to room temperature for 15 minutes, and then placed in a FLIPR^TETRA fluorescence imaging plate reader (Molecular Devices). Fluorescence for the FLIPR^TETRA were programmed to read baseline fluorescence for 10 s (1 read/s), and afterward 5 μl of drug per well was added and read for a total of 5-10 min (1 read/s). Fluorescence in each well was normalized to the average of the first 10 reads for baseline fluorescence, and then either maximum-fold peak increase over basal or area under the curve (AUC) was calculated. […] Data was plotted and non-linear regression was performed using “log(agonist) vs. response” in Graphpad Prism 8 to yield Emax and EC50 parameter estimates.

[2] = molecular target: T1, 5-HT2C (Homo sapiens, UniProt P28335); experiment: BRET Gq dissociation, 5-HT2C; format: cell-based; set-up: expressed in transfected cells; host or cells: HEK293T, transient; details: for Emax: read-out: 5-HT2C Gq Dissociation (BRET) EMAX ± SEM (%5-HT)
T1 sequence (P28335 33-458): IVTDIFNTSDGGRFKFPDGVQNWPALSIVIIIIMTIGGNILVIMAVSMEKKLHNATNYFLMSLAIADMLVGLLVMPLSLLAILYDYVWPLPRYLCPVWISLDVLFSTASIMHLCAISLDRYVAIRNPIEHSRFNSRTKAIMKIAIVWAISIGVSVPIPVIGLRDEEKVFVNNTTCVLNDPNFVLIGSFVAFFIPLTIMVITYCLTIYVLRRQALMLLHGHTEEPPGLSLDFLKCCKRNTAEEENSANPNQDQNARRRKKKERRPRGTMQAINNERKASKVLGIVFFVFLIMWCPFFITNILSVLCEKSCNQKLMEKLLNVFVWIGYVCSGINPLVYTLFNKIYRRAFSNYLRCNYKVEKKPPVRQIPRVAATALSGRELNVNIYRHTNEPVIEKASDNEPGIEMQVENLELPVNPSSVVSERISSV

[3] = test system: male C57BL/6J mice; experiment: Head-twitch response (HTR) in mice; format: in vivo, mouse; details: for ED50: Mus musculus
Procedure: Male C57BL/6J mice (6-8 weeks old) from Jackson Labs (Bar Harbor, ME, USA) were used for the behavioral experiments. The mice were housed on a reversed light-dark cycle (lights on at 1900 h, off at 0700 h) in an AAAC-approved vivarium at the University of California San Diego. Mice were housed up to four per cage in a climate-controlled room and with food and water provided ad libitum except during behavioral testing. Testing was performed between 1000 and 1800 h (during the dark phase of the light-dark cycle). The studies were conducted in accordance with National Institutes Health (NIH) guidelines and were approved by the University of California San Diego Institutional Animal Care and Use Committee.
The mice were allowed to recover from the magnet implantation surgeries for at least 1 week prior to behavioral testing. HTR experiments were conducted in a well-lit room, and the mice were allowed to habituate to the room for at least 1 h prior to testing. Head twitches was assessed in a 12-cm diameter glass cylinder surrounded by a magnetometer coil. Coil voltage was low-pass filtered (2 kHz), amplified, and digitized (20-kHz sampling rate) using a Powerlab/8SP with LabChart v 7.3.2 (ADInstruments, Colorado Springs, CO, USA). […] HTR counts were analyzed using one-way ANOVAs. Dunnett's test was used for post hoc comparisons.

[4] = molecular target: T2, 5-HT2B (Homo sapiens, UniProt P41595); experiment: BRET Gq dissociation, 5-HT2B; format: cell-based; set-up: expressed in transfected cells; host or cells: HEK293T, transient; details: for Emax: read-out: 5-HT2B Gq Dissociation (BRET) EMAX ± SEM (%5-HT)
T2 sequence (P41595 whole entry): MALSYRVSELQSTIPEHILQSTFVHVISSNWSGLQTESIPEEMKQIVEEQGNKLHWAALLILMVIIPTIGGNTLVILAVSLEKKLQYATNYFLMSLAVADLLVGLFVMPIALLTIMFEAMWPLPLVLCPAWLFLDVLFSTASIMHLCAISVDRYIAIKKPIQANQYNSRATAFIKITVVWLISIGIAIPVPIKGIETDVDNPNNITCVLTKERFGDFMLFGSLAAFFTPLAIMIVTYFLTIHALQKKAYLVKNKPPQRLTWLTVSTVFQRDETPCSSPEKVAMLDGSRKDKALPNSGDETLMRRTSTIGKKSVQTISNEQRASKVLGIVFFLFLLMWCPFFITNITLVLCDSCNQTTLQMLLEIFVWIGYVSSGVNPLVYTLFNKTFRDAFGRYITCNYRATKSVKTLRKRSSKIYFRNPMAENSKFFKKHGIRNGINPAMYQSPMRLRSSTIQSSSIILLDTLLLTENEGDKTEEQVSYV

[5] = molecular target: T1, 5-HT2C; experiment: Ca2+ flux assay, 5-HT2C; format: cell-based; set-up: expressed in transfected cells; details: for EC50: 5-HT2C EC50, nM; for Emax: read-out: 5-HT2C Emax % 5-HT
Procedure: as §1

[6] = molecular target: 5-HT2A (Homo sapiens, UniProt P28223); experiment: Ca2+ flux assay, 5-HT2A; format: cell-based; set-up: expressed in transfected cells; details: for Emax: read-out: 5-HT2A Emax % 5-HT, Ca2+ flux
Chain of 5-HT2A (Homo sapiens, UniProt P28223) (P28223 whole entry): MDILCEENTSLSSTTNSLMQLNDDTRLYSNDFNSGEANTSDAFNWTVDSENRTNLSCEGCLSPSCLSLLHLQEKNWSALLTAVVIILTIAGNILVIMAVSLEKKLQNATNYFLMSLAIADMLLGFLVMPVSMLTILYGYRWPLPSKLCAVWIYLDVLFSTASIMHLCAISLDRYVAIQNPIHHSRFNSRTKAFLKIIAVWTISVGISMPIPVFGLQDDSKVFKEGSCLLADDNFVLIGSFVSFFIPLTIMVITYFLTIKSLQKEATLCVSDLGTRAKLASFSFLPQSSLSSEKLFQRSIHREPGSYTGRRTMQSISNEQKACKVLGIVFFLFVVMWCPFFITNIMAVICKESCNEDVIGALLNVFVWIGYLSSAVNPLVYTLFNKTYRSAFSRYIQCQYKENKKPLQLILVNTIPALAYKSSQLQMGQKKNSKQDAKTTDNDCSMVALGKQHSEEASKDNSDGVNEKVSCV
Procedure: as §1

[7] = molecular target: T2, 5-HT2B; experiment: Ca2+ flux assay, 5-HT2B; format: cell-based; set-up: expressed in transfected cells; details: Ca2+ flux; for Emax: read-out: 5-HT2B Emax % 5-HT
Procedure: as §1

[8] = read-out: HTR ED50 μmol/kg (95% CI), SC, except DOI and 25D-NBOMe IP
[9] = read-out: HTR ED50 mg/kg (95% CI), SC, except DOI and 25D-NBOMe IP

Structure (SMILES) | melting point [°C] | 5-HT2A/5-HT2c Selectivity Factor ΔLog(Emax/EC50) [1] | Max HTR response during a 30-min assessment (maximum counts ÷ baseline response) [3] | ED50 [3, 8] [µmol/kg] | ED50 [3, 9] [mg/kg] | EC50 [5] [nM] | Emax [5] [%] | Emax [6] [%] | 5-HT2B EC50, nM [7] | Emax [7] [%] | also measured
COc1cc([N+](=O)[O-])c(OC)cc1CCNCc1ccccc1OC (as salt: HCl) [25N-NBOMe (4), [2-(2,5-dimethoxy-4-nitrophenyl)ethyl] [(2-methoxyphenyl)methyl]amine] | 166.4 to 167.8 | – | – | – | – | – | – | – | – | – | –
COc1cc(Br)cc(OC)c1CC(C)NCc1cccc2ccccc12 (stereo not shown) (as salt: HCl) [(33)] | 207.9 to 209.2 | – | – | – | – | – | – | – | – | – | –
COc1cc([N+](=O)[O-])c(OC)cc1CCNCc1ccccc1O (as salt: HCl) [25N-NBOH (3), 2-({[2-(2,5-dimethoxy-4-nitrophenyl)ethyl]amino}methyl)phenol] | 205 to 206.7 | – | – | – | – | – | – | – | – | – | –
COc1cc(Br)c(CCNCc2cccc(C)c2O)cc1OC (as salt: HCl) [(43), 2-(((2-bromo-4,5-dimethoxyphenethyl)-amino)-methyl)-6-methylphenol] | 169.4 to 169.9 | – | – | – | – | – | – | – | – | – | –
COc1cc([N+](=O)[O-])c(OC)cc1CCNCc1ccccc1[N+](=O)[O-] (as salt: HCl) [25N-NBNO2 (15), [2-(2,5-dimethoxy-4-nitrophenyl)ethyl][(2-nitrophenyl)methyl]amine] | 200.5 to 201.7 | – | – | – | – | – | – | – | – | – | –
COc1cc([N+](=O)[O-])c(OC)cc1CCNCc1ccccc1Br [25N-NBBr (9)] | – | 61.9 | 4.7-fold increase | 14.6 | 6.31 | 144 | 78 ± 2 | 79 ± 2 | No activity | < 10 | EC50 [2]: 30.9 nM; Emax [2]: 81 ± 2.3%; EC50 [4]: 245 nM; Emax [4]: 17 ± 2.1%; EC50 ([6]; 5-HT2A EC50, nM, Ca2+ flux): 2.36 nM
COc1cc([N+](=O)[O-])c(OC)cc1CCNCc1cccc(C)c1O (as salt: HCl) [25N-NB-2-OH-3-Me (18), 2-({[2-(2,5-dimethoxy-4-nitrophenyl)ethyl]amino}methyl)-6-methylphenol] | 177.6 to 179.5 | – | – | – | – | – | – | – | – | – | –
COc1cc([N+](=O)[O-])c(OC)cc1CCNCc1cccc(F)c1OC (as salt: HCl) [25N-NB-2-MeO-3-F (19), [2-(2,5-dimethoxy-4-nitrophenyl)ethyl][(3-fluoro-2-methoxyphenyl)methyl]amine] | 155 to 156.7 | – | – | – | – | – | – | – | – | – | –
COc1cc([N+](=O)[O-])c(OC)cc1CCNCc1ccccc1F [25N-NBF (7)] | – | 18.9 | 4.5-fold increase | 4.1 | 1.52 | 28.8 | 82 ± 2 | 84 ± 1 | No activity | < 10 | EC50 [2]: 14.1 nM; Emax [2]: 83.1 ± 2.1%; EC50 [4]: 75.9 nM; Emax [4]: 24.8 ± 3.2%; EC50 ([6]; 5-HT2A EC50, nM, Ca2+ flux): 1.56 nM
COc1cc(OC)c(OC)cc1CCNCc1ccccc1-c1cccs1 (as salt: HCl) [(59), N-(2-(thiophen-2-yl)benzyl)-2-(2,4,5-trimethoxyphenyl)-ethan-1-amine] | 158.4 to 159.8 | – | – | – | – | – | – | – | – | – | –
COc1cc(CCNCc2cccc3ccccc23)cc(OC)c1Br (as salt: HCl) [(31), 2-(4-bromo-3,5-dimethoxyphenyl)-N-[(naphthalen-1-yl)-methyl]ethan-1-amine] | 232.8 to 234.3 | – | – | – | – | – | – | – | – | – | –
COc1cc([N+](=O)[O-])c(OC)cc1CCNCc1ccccc1C [25N-NBMe (6)] | – | 26.7 | 8.0-fold increase | 3.24 | 1.19 | 33.2 | 89 ± 2 | 85 ± 1 | No activity | < 10 | EC50 [2]: 11.5 nM; Emax [2]: 89.4 ± 2.3%; EC50 [4]: 9.55 nM; Emax [4]: 22.2 ± 3.2%; EC50 ([6]; 5-HT2A EC50, nM, Ca2+ flux): 1.19 nM
COc1cc([N+](=O)[O-])c(OC)cc1CCNCc1ccccc1O [25N-NBOH (3), 2-({[2-(2,5-dimethoxy-4-nitrophenyl)ethyl]amino}methyl)phenol] | – | 4.9 | 8.8-fold increase | 0.19 | 0.07 | 1.78 | 100 ± 2 | 87 ± 2 | No activity | < 10 | EC50 ([6]; 5-HT2A (pEC50 ± SEM), Ca2+ flux): 0.316 nM
COc1cc([N+](=O)[O-])c(OC)cc1CCNCc1cccc(F)c1 (as salt: HCl) [25N-NB-3-F (24), [2-(2,5-dimethoxy-4-nitrophenyl)ethyl][(3-fluorophenyl)methyl]amine] | 216.2 to 217.5 | – | – | – | – | – | – | – | – | – | –
COc1cc([N+](=O)[O-])c(OC)cc1CCNCc1ccc(C)cc1 (as salt: HCl) [25N-NB-4-Me (23), [2-(2,5-dimethoxy-4-nitrophenyl)ethyl] [(4-methylphenyl)methyl]amine] | 182 to 184 | – | – | – | – | – | – | – | – | – | –
COc1cc([N+](=O)[O-])c(OC)cc1CCNCc1cccc(C)c1 (as salt: HCl) [25N-NB-3-Me (22), [2-(2,5-dimethoxy-4-nitrophenyl)ethyl][(3-methylphenyl)methyl]amine] | 194.4 to 195.5 | – | – | – | – | – | – | – | – | – | –
COc1cc(OC)c(OC)cc1CCNCc1cccc(I)c1 (as salt: HCl) [(53), N-(3-iodobenzyl)-2-(2,4,5-trimethoxyphenyl)-ethan-1-amine] | 155.5 to 156.1 | – | – | – | – | – | – | – | – | – | –
COc1cc([N+](=O)[O-])c(OC)cc1CCNCc1ccccc1OC(F)F [25N-NBOCF2H (11), {[2-(difluoromethoxy)phenyl]methyl}[2-(2,5-dimethoxy-4-nitrophenyl)ethyl]amine] | – | 1.9 | 13.5-fold increase | 4.32 | 1.81 | 3.99 | 101 ± 1 | ≤ 77 | No activity | < 10 | Induction of the HTR in mice (in words) [3]: lacked a HTR; also recorded: failed to induce a HTR; EC50 ([6]; 5-HT2A EC50, nM, Ca2+ flux): 1.92 nM; 5-HT2A Emax % 5-HT ([6]; Ca2+ flux): 95 ± 1 % 5-HT
COc1cc([N+](=O)[O-])c(OC)cc1CCNCc1ccccc1Cl [25N-NBCl (8)] | – | 43.3 | 2.3-fold increase | 10.4 | 4.04 | 89.3 | 81 ± 2 | 80 ± 2 | No activity | < 10 | EC50 [2]: 21.4 nM; Emax [2]: 82.5 ± 2.8%; EC50 [4]: 204 nM; Emax [4]: 27 ± 3%; EC50 ([6]; 5-HT2A EC50, nM, Ca2+ flux): 2.03 nM
